Reference: publication PMC8034656 (2021)

Test system: single oligonucleotide with a low probability of self-hybridization (ssDNA) (DNA, single strand) GAACAACGCTCCAACCATCGC
Assay: absorption and fluorescence titration
Conditions: 3 µM DOX; absorption changes, fluorescence hardly quenched

binding: weak
Structure (SMILES): COc1cccc2c1C(=O)c1c(O)c3c(c(O)c1C2=O)C[C@@](O)(C(=O)CO)C[C@@H]3O[C@H]1C[C@H](N)[C@H](O)[C@H](C)O1
